2 compounds from PMC8304783, “Antiadhesive Properties of Imidazolium Ionic Liquids Based on (−)-Menthol Against Candida spp” (International Journal of Molecular Sciences, 2021) can be followed below.

Type in all cases: cell-based
One assay deals with C. albicans B3. In words: Detachment of adherent clinical isolates from polystyrene. The conditions noted are these: isolate B3 on polystyrene; highest concentration (4 x MIC). How it is done:
(§1) Post-adherence treatment with ILs was performed in a similar manner to that described previously by our team. Candida spp. suspensions were prepared by centrifuging YPD-grown cultures and resuspending fungal mass in PBS to an OD600 = 0.6. Sterile 96-well plates were inoculated with the prepared suspensions and incubated for 2 h at 37 °C to induce fungal adhesion. Afterwards, adherent cells were washed with PBS to remove planktonic cells and treated with ILs (concentrations equivalent to 1, 2 or 4 × MIC90 for each fungi) for 2 h at 37 °C. Then, each well was washed with PBS and adherent cells were fixed with 0.1% CV solution for 5 min, and washed with PBS. Cells were then treated with a solution of isopropanol 0.04 N HCL with 0.1% SDS to permeabilize adherent cells and release the CV dye. The absorbance of CV was measured at 590 nm (ASYS UVM 340 Biogenet). The percentage of cells that were removed was determined in comparison to adherent cells treated with PBS only (designated 100% adhesion).
(§2) The effect of imidazolium ILs based on of (1R,2S,5R)‐(−)‐menthol was evaluated on clinical, fluconazole(FLC)‐resistant and FLC‐sensitive C. albicans isolates. C. albicans Gu4 and Gu5 strains were isolated from a patient before and after fluconazole administration, respectively.
(§3) Azole‐resistance of Gu5 origins in overexpression of CDR1 and CD R2. C. albicans B3 and B4 strains […]
(§4) Azole‐resistance of B4 results from overexpression of MDR1. The strains were generous gifts from Prof. S. Milewski (Gdańsk, Poland) and Prof. J. Morschhäuser (Wurzburg, Germany). They are originally referenced in: Franz, R., Ruhnke, M. & Morschhäuser, J. Molecular aspects of fluconazole resistance development in Candida albicans. Mycoses 42, 453–458, (1999).
(§5) Table S1 summarizes the minimal inhibitory and fungicidal concentration (MIC90 and MFC, respectively) values of ILs tested against the C. albicans isolates (for ILs structures see section 5.2. in the mai n text). No difference in case of MIC90 values between the strains was observed. […]

The test system of another assay is C. albicans B4. Described as above. Conditions: isolate B4 on polystyrene; highest concentration (4 x MIC). On the procedure:
as §1, §2, §3, §4, §5

A further assay deals with C. albicans Gu4. The description is as above. Conditions: isolate Gu4 on polystyrene; regardless of the concentration (1, 2, 4 x MIC). On the procedure:
as §1, §2, §3, §4, §5

Another assay has as its system C. albicans isolates. In words: Detachment of adherent clinical isolates from polystyrene (isolates taken together). The conditions noted are these: in most cases, 1, 2 and 4 times MIC90. On the procedure: as §1, §2, §3

Turning to `CCCCCCCCCCn1cc[n+](CO[C@@H]2C[C@H](C)CC[C@H]2C(C)C)c1` [1b, 3-decyl-1-[(1R,2S,5R)-(−)-menthoxymethyl]imidazolium chloride], the Reduction of adhesion with C. albicans B3 was ~ 10%; with C. albicans B4, ~ 10%; in the assay with C. albicans Gu4 it was ~ 20%.

As to `CCCCCCCCCn1cc[n+](CO[C@@H]2C[C@H](C)CC[C@H]2C(C)C)c1` [1a, 1-[(1R,2S,5R)-(−)-menthoxymethyl]-3-nonylimidazolium chloride], in the assay on C. albicans isolates, the “Influence on adherent properties of C. albicans isolates” value was “did not influence”.
